The assay concerns the target T1, Acas RegA (cAMP phosphodiesterase RegA) (Acanthamoeba castellanii, UniProt L7WMY9).
T1 construct: 621 aa protein from full cDNA, N-terminal hexahis-tag, expressed in E. coli
Briefly: inhibition of 3H-cAMP hydrolysis by purified RegA. The class given is biochemical.
T1 sequence (L7WMY9 entry or part of it): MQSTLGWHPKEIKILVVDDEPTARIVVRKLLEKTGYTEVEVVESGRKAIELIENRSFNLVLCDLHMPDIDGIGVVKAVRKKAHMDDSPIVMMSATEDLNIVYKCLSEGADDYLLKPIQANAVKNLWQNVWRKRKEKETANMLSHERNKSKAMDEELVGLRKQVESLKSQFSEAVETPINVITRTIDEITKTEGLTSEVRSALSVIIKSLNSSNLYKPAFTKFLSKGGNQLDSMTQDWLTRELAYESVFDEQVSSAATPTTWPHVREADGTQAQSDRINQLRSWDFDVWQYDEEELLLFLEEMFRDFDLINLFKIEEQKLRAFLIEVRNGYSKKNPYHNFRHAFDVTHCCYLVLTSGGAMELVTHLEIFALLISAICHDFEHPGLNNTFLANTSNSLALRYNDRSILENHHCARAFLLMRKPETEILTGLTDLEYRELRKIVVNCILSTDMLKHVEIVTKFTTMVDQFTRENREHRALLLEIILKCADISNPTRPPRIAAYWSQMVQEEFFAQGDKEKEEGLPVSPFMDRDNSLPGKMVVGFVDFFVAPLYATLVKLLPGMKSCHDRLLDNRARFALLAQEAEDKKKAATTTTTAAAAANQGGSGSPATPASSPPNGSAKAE
Consider `COc1cc2c(cc1OC)-c1c/c(=N\c3c(C)cc(C)cc3C)n(C)c(=O)n1CC2` [trequinsin], for which the IC50 was 30 µM.
With `Clc1cccc(Nc2nnc(-c3ccccc3)c3ccccc23)c1` [MY-5445], the IC50 is 400 µM.
Compound `OCCN(CCO)c1nc(N2CCCCC2)c2nc(N(CCO)CCO)nc(N3CCCCC3)c2n1` [dipyridamole] yielded a half-inhibitory concentration (IC50) of 12 µM.

Usually IC50 stands for the concentration at which inhibition is half-maximal. A lower IC50 goes with greater potency.

Values taken from PMC3906536, “The cyclic AMP phosphodiesterase RegA critically regulates encystation in social and pathogenic amoebas^” (Cellular Signalling, 2014).
